IC50 data for 19 molecules are collected here from US20220332700A1, “NOVEL APOPTOSIS SIGNAL-REGULATING KINASE 1 INHIBITORS” (MANKIND PHARMA LTD, priority 2019, published 2022).

Structures are written as SMILES.

One experiment deals with T1, recombinant ASK1 (Homo sapiens, UniProt Q99683).
T1 construct: purchased Carna Biosciences
Description: ASK1 Biochemical Assay (HTRF KinEASE-STK S3). The conditions noted are these: ATP 100 μM; read-out: Biochemical Assay IC50. A digest of the protocol: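 Recombinant ASK1 (5 ng) preincubated with compound 1 h at 23 °C in MOPS pH 7 buffer with Mg-acetate, DTT, NP40, glycerol, BSA and 1% DMSO. Inhibition calculated against vehicle after substrate-blank subtraction.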
On the technique in general: Time-resolved FRET reads energy transfer from a long-lived donor to a nearby acceptor.

A further experiment concerns the target T2, Human ASK1 (Homo sapiens, UniProt Q99683).
T2 construct: expressed in transfected cells; host or cells: HEK293T-AP1
T2 sequence (Q99683 1-1374): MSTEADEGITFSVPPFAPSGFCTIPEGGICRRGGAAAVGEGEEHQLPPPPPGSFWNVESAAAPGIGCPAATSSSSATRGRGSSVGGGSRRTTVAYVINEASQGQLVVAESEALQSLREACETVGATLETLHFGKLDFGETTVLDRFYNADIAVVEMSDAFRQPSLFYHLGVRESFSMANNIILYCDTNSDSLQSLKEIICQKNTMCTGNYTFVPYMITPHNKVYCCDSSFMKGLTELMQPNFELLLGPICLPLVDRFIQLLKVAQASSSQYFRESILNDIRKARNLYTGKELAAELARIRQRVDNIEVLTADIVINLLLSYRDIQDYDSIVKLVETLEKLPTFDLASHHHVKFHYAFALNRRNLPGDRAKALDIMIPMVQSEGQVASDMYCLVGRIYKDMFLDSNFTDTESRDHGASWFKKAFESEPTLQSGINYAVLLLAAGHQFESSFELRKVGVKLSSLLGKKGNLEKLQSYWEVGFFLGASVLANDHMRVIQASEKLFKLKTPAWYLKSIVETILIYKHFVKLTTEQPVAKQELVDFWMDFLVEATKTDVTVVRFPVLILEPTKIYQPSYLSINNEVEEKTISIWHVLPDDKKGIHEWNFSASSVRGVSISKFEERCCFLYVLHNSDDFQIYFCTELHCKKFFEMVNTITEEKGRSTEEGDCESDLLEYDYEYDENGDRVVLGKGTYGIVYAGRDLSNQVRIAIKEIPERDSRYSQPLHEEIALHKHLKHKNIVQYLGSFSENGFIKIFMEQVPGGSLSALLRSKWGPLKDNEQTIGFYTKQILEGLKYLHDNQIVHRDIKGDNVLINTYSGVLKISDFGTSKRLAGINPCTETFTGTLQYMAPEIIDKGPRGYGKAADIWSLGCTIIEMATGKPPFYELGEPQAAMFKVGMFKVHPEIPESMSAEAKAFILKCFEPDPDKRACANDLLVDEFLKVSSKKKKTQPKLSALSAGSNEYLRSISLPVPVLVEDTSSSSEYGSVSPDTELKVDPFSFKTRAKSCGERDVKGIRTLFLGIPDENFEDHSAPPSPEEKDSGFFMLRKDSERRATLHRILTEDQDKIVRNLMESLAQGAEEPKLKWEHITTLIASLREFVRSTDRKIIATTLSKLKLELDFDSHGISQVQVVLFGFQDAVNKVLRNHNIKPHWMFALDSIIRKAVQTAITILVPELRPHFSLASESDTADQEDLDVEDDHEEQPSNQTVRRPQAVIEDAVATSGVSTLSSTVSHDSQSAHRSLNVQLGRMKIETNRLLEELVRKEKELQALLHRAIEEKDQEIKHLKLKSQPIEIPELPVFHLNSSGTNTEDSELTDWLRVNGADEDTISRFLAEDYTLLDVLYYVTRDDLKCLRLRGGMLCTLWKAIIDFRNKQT
Description: ASK1 Cell Based Assay (phospho p38 read out in hASK1 transfected HEK293T-AP1 cells). The conditions noted are these: HEK293T-AP1 cells, 1 mM hydrogen peroxide, phospho p38; read-out: Cell Based Assay IC50. The protocol: HEK293T-AP1 cells were seeded at a density of 20,000 cells per well in a poly-d-lysine coated 96 well microplate. Next day, cells were transfected with hASK1-pcDNA3.1 vector using lipofectamine 3000. After 24 hours of transfection, cells were treated with compounds for 24 hours in assay medium. DMSO was used as a vehicle control with a final DMSO concentration of 0.2%. On 4th day, medium was discarded and cells were activated with 1 mM hydrogen peroxide for 1 hour in the presence of compounds. Cells were lysed for 1 hour with 1× lysis buffer on a shaker at 100 rpm. Sixteen microliters of lysate was collected into a 384 well small volume plate. Phospho p38 levels in the lysate was detected by using CisbioPhospho-p38 MAPK (Thr180/Tyr182) #64P38PEG.Four microliters of phospho p38 antibodies labelled with europium cryptate and d2 acceptor, were added to the lysate and incubated overnight. TR-FRET was measured at an excitation of 335 nm and emission was measured at 615 nm and 665 nm in BMG FLUOstar multimode reader.
Compounds were assessed for ASK1 inhibition based on phospho p38 read out. […] Background control values were susbtracted from vehicle control as well as from compound treated wells.

As a reminder, the IC50 is the concentration that inhibits the measured activity by half.

As to `CC(C)n1cnnc1-c1cccc(N2CCN(c3ccc(NC(C(N)=O)C4CC4)cc3)C2=O)n1` (centres unmarked) [Example 1052, 2-(4-(3-(6-(4-isopropyl-4H-1,2,4-triazol-3-yl)pyridin-2-yl)-2-oxoimidazolidin-1-yl)phenylamino)-2-cyclopropylacetamide], the half-maximal inhibitory concentration (IC50) on recombinant ASK1 is less than 100 nM; on Human ASK1, greater than 1000 nM.
Consider `CC(CC#N)n1cnnc1-c1cccc(N2CCN(c3ccc(S(C)(=O)=O)cc3)C2=O)n1` (centres unmarked) [Example 1053, 3-(3-(6-(3-(4-(methylsulfonyl)phenyl)-2-oxoimidazolidin-1-yl)pyridin-2-yl)-4H-1,2,4-triazol-4-yl)butanenitrile], for which the IC50 on recombinant ASK1 was less than 100 nM; at Human ASK1, greater than 1000 nM.
Turning to `COc1cc(S(C)(=O)=O)c(C)cc1N1CCN(c2cccc(-c3nncn3C(C)C)n2)C1=O` [Example 1055, 1-(6-(4-isopropyl-4H-1,2,4-triazol-3-yl)pyridin-2-yl)-3-(2-methoxy-5-methyl-4-(methylsulfonyl)phenyl)imidazolidin-2-one], the IC50 on recombinant ASK1 was less than 100 nM; at Human ASK1, greater than 1000 nM.
Taken in the same sequence, the figures for `CC(C)n1cnnc1-c1cccc(N2CCN(c3ccc(NC(C#N)C4CC4)cc3)C2=O)n1` (centres unmarked) [Example 1056, 2-(4-(3-(6-(4-isopropyl-4H-1,2,4-triazol-3-yl)pyridin-2-yl)-2-oxoimidazolidin-1-yl)phenylamino)-2-cyclopropylacetonitrile] were greater than 100 nM and greater than 1000 nM.
`CC(CO)n1cnnc1-c1cccc(N2CCN(c3ccc(S(C)(=O)=O)cc3)C2=O)n1` (centres unmarked) [Example 1057, 1-(6-(4-(1-hydroxypropan-2-yl)-4H-1,2,4-triazol-3-yl)pyridin-2-yl)-3-(4-(methylsulfonyl)phenyl)imidazolidin-2-one]: the IC50 is less than 100 nM on recombinant ASK1 and greater than 1000 nM at Human ASK1.
Taken in the same sequence, the figures for `CC(C)n1cnnc1-c1cccc(N2CCN(c3ccc(S(C)(=O)=O)c(C4CC4)c3)C2=O)n1` [Example 1059, 1-(3-cyclopropyl-4-(methylsulfonyl)phenyl)-3-(6-(4-isopropyl-4H-1,2,4-triazol-3-yl)pyridin-2-yl)imidazolidin-2-one] were less than 100 nM and greater than 1000 nM.
Taken in the same sequence, the figures for `CC(n1cnnc1-c1cccc(N2CCN(c3ccc(S(C)(=O)=O)cc3)C2=O)n1)C(F)(F)F` (centres unmarked) [Example 1061, 1-(6-(4-(1,1,1-trifluoropropan-2-yl)-4H-1,2,4-triazol-3-yl)pyridin-2-yl)-3-(4-(methylsulfonyl)phenyl)imidazolidin-2-one] were less than 100 nM and greater than 1000 nM.
Taken in the same sequence, the figures for `CC(C)n1cnnc1-c1cccc(N2CCN(c3ccc(S(C)(=O)=O)c(N4CCCCC4)c3)C2=O)n1` [Example 1063, 1-(6-(4-isopropyl-4H-1,2,4-triazol-3-yl)pyridin-2-yl)-3-(4-(methylsulfonyl)-3-(piperidin-1-yl)phenyl)imidazolidin-2-one] were less than 100 nM and greater than 1000 nM.
For `CC(C)n1cnnc1-c1cccc(N2CCN(c3ccc(C4CCOCC4)cc3)C2=O)n1` [Example 1066, 1-(4-(tetrahydro-2H-pyran-4-yl)phenyl)-3-(6-(4-isopropyl-4H-1,2,4-triazol-3-yl)pyridin-2-yl)imidazolidin-2-one], the IC50 on recombinant ASK1 is less than 100 nM; at Human ASK1 it was greater than 1000 nM.
In the same order, the values of `CC(C)n1cnnc1-c1cccc(N2CCN(c3ccc(N4CCC(O)CC4)cc3)C2=O)n1` [Example 1067, 1-(4-(4-hydroxypiperidin-1-yl)phenyl)-3-(6-(4-isopropyl-4H-1,2,4-triazol-3-yl)pyridin-2-yl)imidazolidin-2-one] are less than 100 nM and greater than 100 nM.
Taken in the same sequence, the figures for `CC1COCC(=O)N1c1ccc(N2CCN(c3cccc(-c4nncn4C(C)C)n3)C2=O)cc1` (centres unmarked) [Example 1068, 4-(4-(3-(6-(4-isopropyl-4H-1,2,4-triazol-3-yl)pyridin-2-yl)-2-oxoimidazolidin-1-yl)phenyl)-5-methylmorpholin-3-one] were less than 100 nM and greater than 100 nM.
For the molecule `CC1COCCN1c1ccc(N2CCN(c3cccc(-c4nncn4C(C)C)n3)C2=O)cc1` (centres unmarked) [Example 1069, 1-(6-(4-isopropyl-4H-1,2,4-triazol-3-yl)pyridin-2-yl)-3-(4-(3-methylmorpholino)phenyl)imidazolidin-2-one], the IC50 is less than 100 nM on recombinant ASK1 and greater than 100 nM at Human ASK1.
Regarding `CC(C)n1cnnc1-c1cccc(N2CCN(c3ccc(S(=O)(=O)N4CCOCC4)cc3)C2=O)n1` [Example 1073, 1-(6-(4-isopropyl-4H-1,2,4-triazol-3-yl)pyridin-2-yl)-3-(4-(morpholinosulfonyl)phenyl)imidazolidin-2-one], the figures for the IC50 at recombinant ASK1 and on Human ASK1 were less than 100 nM and greater than 100 nM, respectively.
`CC(C)n1cnnc1-c1cccc(N2CCN(c3ccc(N4CC5(COC5)C4)cc3)C2=O)n1` [Example 1074, 1-(4-(2-oxa-6-azaspiro[3.3]heptan-6-yl)phenyl)-3-(6-(4-isopropyl-4H-1,2,4-triazol-3-yl)pyridin-2-yl)imidazolidin-2-one]: the IC50 at recombinant ASK1 was less than 100 nM; at Human ASK1, greater than 100 nM.
In the same order, the values of `CC(C)n1cnnc1-c1cccc(N2CCN(c3ccc(N4CCOCC4)c(F)c3)C2=O)n1` [Example 1075, 1-(3-fluoro-4-morpholinophenyl)-3-(6-(4-isopropyl-4H-1,2,4-triazol-3-yl)pyridin-2-yl)imidazolidin-2-one] are less than 100 nM and greater than 1000 nM.
Taken in the same sequence, the figures for `CC1CN(c2ccc(N3CCN(c4cccc(-c5nncn5C(C)C)n4)C3=O)cc2)C(=O)CO1` (centres unmarked) [Example 1076, 4-(4-(3-(6-(4-isopropyl-4H-1,2,4-triazol-3-yl)pyridin-2-yl)-2-oxoimidazolidin-1-yl)phenyl)-6-methylmorpholin-3-one] were less than 100 nM and greater than 1000 nM.
For `CC(C)n1cnnc1-c1cccc(N2CCN(c3ccc(C(=O)N4CCOCC4)cc3)C2=O)n1` [Example 1077, 1-(6-(4-isopropyl-4H-1,2,4-triazol-3-yl)pyridin-2-yl)-3-(4-(morpholine-4-carbonyl)phenyl)imidazolidin-2-one], the results for the IC50 on recombinant ASK1 and at Human ASK1 were less than 100 nM and greater than 100 nM, respectively.
Taken in the same sequence, the figures for `CC1CN(c2ccc(N3CCN(c4cccc(-c5nncn5C(C)C)n4)C3=O)cc2)CCO1` (centres unmarked) [Example 1078, 1-(6-(4-isopropyl-4H-1,2,4-triazol-3-yl)pyridin-2-yl)-3-(4-(2-methylmorpholino)phenyl)imidazolidin-2-one] were less than 100 nM and greater than 100 nM.
In the same order, the values of `CC(C)n1cnnc1-c1cccc(N2CCN(c3ccc(CN4CCOCC4)cc3)C2=O)n1` [Example 1080, 1-(6-(4-isopropyl-4H-1,2,4-triazol-3-yl)pyridin-2-yl)-3-(4-(morpholinomethyl)phenyl)imidazolidin-2-one] are less than 100 nM and greater than 1000 nM.
